{
  "source": "patent US20220162257A1",
  "about": "“3ALPHA, 5BETA-NEUROACTIVE STEROIDS FOR THE TREATMENT OF EPILEPSY AND SEIZURE DISEASES” (USTAV ORGANICKE CHEMIE A BIOCHEMIE AV CR, V. V. I., priority 2019, published 2022)",
  "format_in_all_cases": "in vivo, rat",
  "key": {"[1]": {"system": "PTZ-induced seizures in 12- and 25-day-old rats", "assay": "PTZ-induced generalized tonic-clonic seizures in immature rats", "protocol": "(§1) Anticonvulsant effect of compounds was evaluated in two models of epileptic seizures in immature rats (PTZ model and 6 Hz model). PTZ convulsions were tested in 12- and 25-day-old rats, 6 Hz-induced seizures in 15- and 25-day-old rats. Young adult rats (P60) were also used in either test. Day of birth was taken as P0. Experiments evaluating precognitive effect were performed in adult male rats of the Wistar and Long Evans strain (3 months old, b.w. 300-400 g). All animals were obtained from a breeding facility of Institute of Physiology CAS (certificate No. 1396/2014-MZE-17214) Animals were held in standard conditions (21±1° C., humidity 50-60%, light regime 12/12) with unrestricted access to food and water. All manipulations with animals were performed according to the https://nc3rs.org.uk/arrive-guidelines and to Czech Animal Protection Law 246/1992 Sb. And international directives (EU Directive 2010/63/EU for animals' experiments).\n(§2) Two age groups of immature male Wistar rats were used in either experiment. In PTZ model P12 corresponding by a maturation of the brain to early postnatal human babies, i.e. to the period where children epileptic encephalopathy mostly resistant to present pharmacotherapy start to appear. The other group—P25 animals corresponds with school-age children. Generalized tonic-clonic seizures were elicited by a subcutaneous injection of PTZ in a dose of 100 mg/kg. The 6 Hz model was tested in P15 (at this age eyes are open and it is not necessary to surgically distract lids). Biphasic pulses with […] were applied transcorneally for 3 s by a constant current stimulator of Ugo Basile company. PTZ induced generalized seizures represent a model of human generalized tonic-clonic seizures, seizures elicited by 6 Hz stimulation are generally taken as a model of temporal (psychomotor, complex partial) seizures. Differences in latencies and seizure severity were evaluated by ANOVA with a subsequent pairwise comparison by Holm-Sidak test. Incidence of seizures were evaluated by Fischer exact test. Critical p value was set at p=0.05.\nAnticonvulsant effect was studied in 12- and 25-day-old male Wistar rats. Steroid derivatives were administered at doses of 1, 5 and 10 mg/kg i.p. 20 min before the administration of PTZ (100 mg/kg s.c.)."}, "[2]": {"system": "generalized tonic-clonic seizures in adult rats", "assay": "seizures in young adult (P60) rats, FIGS. 6A-6C", "protocol": "FIGS. 6A-6C show anticonvulsant effect of a substance from Example 1 in a model of seizures elicited by 6 Hz transcorneal electrical stimulation in young adult (P60) male rats. Steroid substance in dose 1, 5, or 10 mg/kg i.p. (x-axis) was administered 20 min before the first stimulation. Graph 6A (y-axis in %)—incidence of complete (GTCS) and incomplete, i.e. without the tonic phase (GCS) generalized seizures; graph 6B (y-axis in %)—incidence of minimal clonic seizures; graph 6C (y-axis in s)—latencies of generalized seizures.\nas §1\nGTCS were present in only one rat after the 10-mg/kg dose."}, "[3]": {"system": "seizures elicited by 6 Hz stimulation in rats", "assay": "6 Hz transcorneal electrical stimulation seizure model in rats", "protocol": "as §1, §2\nYounger group was formed by 15-day-old animals—the animals at this age have open eyes and it is not necessary to distract eyelids surgically. The other group was 25 days old. Sensitivity of these two age groups is different, therefore we used current intensities of 40, 60, and 80 mA in 15-day-old rats and 20, 40, and 60 mA in the 25-day-old animals. Stimulations were made in 20-min intervals, 10 min before each stimulation a drop of mesocaine into either eye was used as a local anesthetic. Steroid derivatives in a dose of 10 mg/kg i.p. were administered 20 min before the first stimulation. Seizures elicited by 60-mA intensity of stimulation current were suppressed, those elicited by 80 mA not."}, "memory in rats": {"system": "memory in rats", "assay": "Passive avoidance test, intact animals and dizocilpine (MK-801) schizophrenia-like behavior", "protocol": "as §1\nSchizophrenia-like behavior was induced by i.p. administration of dizocilpine (MK-801) at a dose of 0.1 mg/kg. The effect of the Compound from Example 1 was tested in Passive avoidance test (Psychopharmacology (Berl). 2016, 233, 2077). This test allows to study memory and learning ability. The Compound from Example 1 was applied for 30 min i.p. before the task in doses of 0.1; 1 and 3 mg/kg."}},
  "data": [
    {"compound": "CC(=O)[C@H]1CC[C@H]2[C@@H]3CC[C@@H]4C[C@H](OC(=O)C5CCC(=O)N5)CC[C@]4(C)[C@H]3CC[C@]12C", "note": "(stereo partly drawn) [Example 1, (3R,5R,8R,9S,10S,13S,14S,17S)-17-Acetyl-10,13-dimethylhexadecahydro-1H-cyclopenta[a]fenantren-3-yl 5-oxopyrrolidine-2-carboxylate]", "values": [
      {"measurement": "seizure severity (5-point scale)", "setting": "[1]; P12 and P25 rats, 1, 5, 10 mg/kg i.p.", "value": "copied the presence of GTCS"},
      {"measurement": "tonic phase of GTCS", "setting": "[1]; P12 rats, 1 mg/kg i.p.", "value": "suppressed the tonic phase of GTCS"},
      {"measurement": "incidence of seizures", "setting": "[1]; P12 rats, 5 mg/kg i.p.", "value": "significantly decrease the incidence of seizures"},
      {"measurement": "incidence of seizures", "setting": "[1]; P12 rats, 10 mg/kg i.p.", "value": "completely suppressed the seizures"},
      {"measurement": "latencies to GTCS", "setting": "[1]; P12 rats, 1 and 5 mg/kg i.p.", "value": "significantly prolonged"},
      {"measurement": "latencies of seizures", "setting": "[1]; P25 rats, 1 mg/kg i.p.", "value": "not changed"},
      {"measurement": "animals with seizures", "setting": "[1]; P25 rats, 5 and 10 mg/kg i.p.", "value": "one animal only"},
      {"measurement": "incidence of GTCS", "setting": "[1]; P25 rats, 5 and 10 mg/kg i.p.", "value": "decrease the incidence of GTCS without a selective effect against the tonic phase"},
      {"measurement": "latency to GTCS", "setting": "[2]; 5 mg/kg i.p.", "value": "significantly decreased"},
      {"measurement": "animals with GTCS", "setting": "[2]; 10 mg/kg i.p.", "value": "only one rat"},
      {"measurement": "incidence of generalized tonic-clonic seizures (GTCS)", "setting": "[2]; 10 mg/kg i.p.", "value": "significantly decreased the incidence"},
      {"measurement": "minimal clonic seizures", "setting": "[2]; 10 mg/kg i.p.", "value": "remained unaffected"},
      {"measurement": "seizure severity", "setting": "[2]; 5 and 10 mg/kg i.p.", "value": "significantly decreased"},
      {"measurement": "seizure severity", "setting": "[3]; P15 rats, 10 mg/kg i.p.", "value": "not affected"},
      {"measurement": "duration of seizures", "setting": "[3]; P15 rats, 60 and 80 mA, 10 mg/kg i.p.", "value": "significantly shortened at both current intensities"},
      {"measurement": "incidence of seizures", "setting": "[3]; P15 rats, 60 mA, 10 mg/kg i.p.", "value": "suppressed"},
      {"measurement": "incidence of seizures (suppressed or not)", "setting": "[3]; P15 rats, 80 mA, 10 mg/kg i.p.", "value": "not"},
      {"measurement": "duration of seizures", "setting": "[3]; P25 rats, 10 mg/kg i.p.", "value": "significantly shorter"},
      {"measurement": "incidence of seizures", "setting": "[3]; P25 rats, 10 mg/kg i.p.", "value": "tendency to a decreased incidence of seizures"},
      {"measurement": "seizure intensity (severity)", "setting": "[3]; P25 rats, 10 mg/kg i.p.", "value": "lower intensity"},
      {"measurement": "changes of the threshold intensity", "setting": "[3]; adult (P60) rats, 1, 5, 10 mg/kg i.p., tendency after 10 mg/kg", "value": "did not reach the level of significance"},
      {"measurement": "memory damage measured 1 h after the stimulus", "setting": "memory in rats; dizocilpine 0.1 mg/kg, compound 0.1 mg/kg i.p.", "value": "prevented memory damage"},
      {"measurement": "memory one hour after the aversive stimulus", "setting": "memory in rats; intact animals, 0.1, 1 and 3 mg/kg i.p.", "value": "does not impair memory"}
    ]}
  ]
}
